Results from ChEMBL document CHEMBL3885881, “DrugMatrix”.
“And” between values parts separate entries of the source, which are not always exact repeats. Equal entries are not always repeated.

Species: Rattus norvegicus
Assay: DrugMatrix - Regimen: Daily Repeat
Type: toxicity, organism-based, Sprague-Dawley
Design: regimen Daily Repeat, gender Male, age 6-8 weeks
Details: in vivo, ip, 0 mg/kg, route intraperitoneal, dose level Control, vehicle 100 % SALINE; for ABSOLUTE BASOPHIL / ABSOLUTE EOSINOPHIL / ABSOLUTE LYMPHOCYTE / ABSOLUTE MONOCYTE / BASOPHIL / EOSINOPHIL / ERYTHROCYTE COUNT / HEMATOCRIT / HEMOGLOBIN / LEUKOCYTE COUNT / LYMPHOCYTE / MEAN CORPUSCULAR HEMOGLOBIN / MEAN CORPUSCULAR HEMOGLOBIN CONCENTRATION / MEAN CORPUSCULAR VOLUME / MONOCYTE / NEUTROPHIL / PLATELET COUNT: tissue Blood
[1] = 120 h, tissue Plasma, time 5 day
[2] = […], tissue Plasma, time 14 day
[3] = […], tissue Plasma, time 28 day

Which results are given for CISPLATIN?
ABSOLUTE BASOPHIL (120 h, time 5 day): 32 cells/µL; ABSOLUTE EOSINOPHIL (120 h, time 5 day): 110 cells/µL; ABSOLUTE LYMPHOCYTE (120 h, time 5 day): 6630 cells/µL; ABSOLUTE MONOCYTE (120 h, time 5 day): 140 cells/µL; BASOPHIL (120 h, time 5 day): 0.38% and 0.35%; EOSINOPHIL (120 h, time 5 day): 1.28% and 0.62%; ERYTHROCYTE COUNT (120 h, time 5 day): 7.45 x10E6/uL and 7.26 x10E6/uL; HEMATOCRIT (120 h, time 5 day): 45.74% and 47.97%; HEMOGLOBIN (120 h, time 5 day): 14.72 G/DL and 15.38 G/DL; LEUKOCYTE COUNT (120 h, time 5 day): 8.11 x10E3/uL and 8.68 x10E3/uL; LYMPHOCYTE (120 h, time 5 day): 81.3% and 86.77%; MEAN CORPUSCULAR HEMOGLOBIN (120 h, time 5 day): 19.76 pg and 21.18 pg; MEAN CORPUSCULAR HEMOGLOBIN CONCENTRATION (120 h, time 5 day): 32.16 G/DL and 32.05 G/DL; MEAN CORPUSCULAR VOLUME (120 h, time 5 day): 61.38 fL and 66.15 fL; MONOCYTE (120 h, time 5 day): 1.76% and 1.57%; NEUTROPHIL (120 h, time 5 day): 14.9% and 9.53%; PLATELET COUNT (120 h, time 5 day): 1322.4 x10E3/uL and 1786 x10E3/uL; ALANINE AMINOTRANSFERASE [1]: 25.8 u/L and 20.5 u/L; ALBUMIN [1]: 3.64 G/DL and 4.35 G/DL; ALKALINE PHOSPHATASE [1]: 300 u/L; ASPARTATE AMINOTRANSFERASE [1]: 81.4 u/L and 86.75 u/L; BLOOD UREA NITROGEN [1]: 14.4 mg/dL and 17 mg/dL; CARBON DIOXIDE [1]: 29 mmol/L; CHOLESTEROL [1]: 69.2 mg/dL and 51.25 mg/dL; CREATININE [1]: 0.56 mg/dL and 0.47 mg/dL; GLUCOSE [1]: 125.4 mg/dL and 128.75 mg/dL; LACTATE DEHYDROGENASE [1]: 105.4 u/L and 145 u/L; LIPASE [1]: 22.4 u/L and 13.25 u/L; PHOSPHORUS [1]: 11.8 mg/dL; POTASSIUM [1]: 5.52 MEQ/L and 6.58 MEQ/L; SODIUM [1]: 147 MEQ/L and 151 MEQ/L; TOTAL BILIRUBIN [1]: 0.2 mg/dL and 0.33 mg/dL; URIC ACID [1]: 1.06 mg/dL and 1.95 mg/dL; ABSOLUTE BASOPHIL ([…], time 14 day): 130 cells/µL; ABSOLUTE EOSINOPHIL ([…], time 14 day): 140 cells/µL; ABSOLUTE LYMPHOCYTE ([…], time 14 day): 13500 cells/µL; ABSOLUTE MONOCYTE ([…], time 14 day): 400 cells/µL; HEMATOCRIT ([…], time 14 day): 45.98%; HEMOGLOBIN ([…], time 14 day): 15.17 G/DL; MEAN CORPUSCULAR VOLUME ([…], time 14 day): 59.4 fL; NEUTROPHIL ([…], time 14 day): 14.14%; ABSOLUTE BASOPHIL ([…], time 28 day): 91 cells/µL; ABSOLUTE EOSINOPHIL ([…], time 28 day): 110 cells/µL; ABSOLUTE LYMPHOCYTE ([…], time 28 day): 9910 cells/µL; ABSOLUTE MONOCYTE ([…], time 28 day): 210 cells/µL; BASOPHIL ([…], time 28 day): 0.77%; EOSINOPHIL ([…], time 28 day): 0.92%; ERYTHROCYTE COUNT ([…], time 28 day): 8.21 x10E6/uL; HEMATOCRIT ([…], time 28 day): 47.53%; HEMOGLOBIN ([…], time 28 day): 15.65 G/DL; LEUKOCYTE COUNT ([…], time 28 day): 11.91 x10E3/uL; LYMPHOCYTE ([…], time 28 day): 83.34%; MEAN CORPUSCULAR HEMOGLOBIN ([…], time 28 day): 19.07 pg; MEAN CORPUSCULAR HEMOGLOBIN CONCENTRATION ([…], time 28 day): 32.93 G/DL; MEAN CORPUSCULAR VOLUME ([…], time 28 day): 57.9 fL; MONOCYTE ([…], time 28 day): 1.68%; NEUTROPHIL ([…], time 28 day): 12.97%; PLATELET COUNT ([…], time 28 day): 1323.8 x10E3/uL; ALBUMIN [2]: 3.66 G/DL; CARBON DIOXIDE [2]: 25 mmol/L; CHLORIDE [2]: 107 MEQ/L; SODIUM [2]: 149.2 MEQ/L; URIC ACID [2]: 0.94 mg/dL; ALANINE AMINOTRANSFERASE [3]: 30 u/L; ALBUMIN [3]: 3.71 G/DL; ALKALINE PHOSPHATASE [3]: 186.8 u/L; ASPARTATE AMINOTRANSFERASE [3]: 78.2 u/L; BLOOD UREA NITROGEN [3]: 14.2 mg/dL
